Measurements taken from patent US7449463B2, “Morpholinyl containing benzimidazoles as inhibitors of respiratory syncytial virus replication” (Tibotec Pharmaceuticals Ltd., priority 2003, dated 2008).

Each compound was assayed on Respiratory Syncytial Virus (assay: microbe, parasite or virus in culture). Details: RSV-infected HeLa cells, MTT readout seven days after infection; −log of EC50 in molar units.
Format: cell-based
Excerpt: In vitro Screening for Activity against Respiratory Syncytial Virus.
The percent protection against cytopathology caused by viruses (antiviral activity or EC50) achieved by tested compounds and their cytotoxicity (CC50) are both calculated from dose-response curves. The selectivity of the antiviral effect is represented by the selectivity index (SI), calculated by dividing the CC50 (cytotoxic dose for 50% of the cells) by the EC50 (antiviral activity for 50% of the cells).
Automated tetrazolium-based colorimetric assays were used for determination of EC50 and CC50 of test compounds. Flat-bottom, 96-well plastic microtiter trays were filled with 180 μl of Eagle's Basal Medium, supplemented with 5% FCS (0% for FLU) and 20 mM Hepes buffer. Subsequently, stock solutions (7.8× final test concentration) of compounds were added in 45 μl volumes to a series of triplicate wells so as to allow simultaneous evaluation of their effects on virus- and mock-infected cells. Five five-fold dilutions were made directly in the microtiter trays using a robot system. Untreated virus controls, and HeLa cell controls were included in each test. Approximately 100 TCID50 of Respiratory Syncytial Virus was added to two of the three rows in a volume of 50 μl. The same volume of medium was added to the third row to measure the cytotoxicity of the compounds at the same concentrations as those used to measure the antiviral activity. After two hours of incubation, a suspension (4×10^5 cells/ml) of HeLa cells was added to all wells in a volume of 50 μl. The cultures were incubated at 37° C. in a 5% CO2 atmosphere. Seven days after infection the cytotoxicity and the antiviral activity was examined spectrophotometrically. To each well of the microtiter tray, 25 μl of a solution of MTT (3-(4,5-dimethylthiazol-2-yl)-2,5-diphenyltetrazolium bromide) was added. The trays were further incubated at 37° C. for 2 hours, after which the medium was removed from each cup. Solubilization of the formazan crystals was achieved by adding 100 μl 2-propanol. Complete dissolution of the formazan crystals were obtained after the trays have been placed on a plate shaker for 10 min. Finally, the absorbances were read in an eight-channel computer-controlled photometer (Multiskan MCC, Flow Laboratories) at two wavelengths (540 and 690 nm). The absorbance measured at 690 nm was automatically subtracted from the absorbance at 540 nm, so as to eliminate the effects of non-specific absorption.
`Cc1cccc(N(CCCCO)Cc2ccc3nc(NCCCN4CCOCC4)n(Cc4nc(C)ccc4O)c3c2)c1` [Compound 92] was tested, and the Activity was 8.8.
Compound `Cc1ccc(CCC(C)O)c(NCc2ccc3nc(NCCCN4CCOCC4)n(Cc4nc(C)ccc4O)c3c2)c1` (stereo not shown) [Compound 15] has an Activity of 9.3.
Compound `Cc1ccc(O)c(Cn2c(NC3CCN(CCN4CCOCC4)CC3)nc3c(C)cccc32)n1` [Compound 166] has an Activity of 6.8.
`Cc1ccc(C#CCO)c(NCc2ccc3nc(NCCCN4CCOCC4)n(Cc4nc(C)ccc4O)c3c2)c1` [Compound 34, 2-[6-{[2-(3-Hydroxy-prop-1-ynyl)-5-methyl-phenylamino]-methyl}-2-(3-morpholin-4-yl-propylamino)-benzoimidazol-1-ylmethyl]-6-methyl-pyridin-3-ol] gave an Activity of 8.6.
Compound `Cc1ccc(O)c(Cn2c(NCCCN3CCOCC3)nc3ccc(CNc4ccccc4CCO)cc32)n1` [Compound 22] has an Activity of 9.1.
`Cc1cc(C)cc(N(CCCCO)Cc2ccc3nc(NCCCN4CCOCC4)n(Cc4nc(C)ccc4O)c3c2)c1` [Compound 61] was tested, and the Activity was 9.5.
For `Cc1ccc(O)c(Cn2c(NCCCN3CCOCC3)nc3ccc(CN(c4ccccc4)c4cccc(O)c4)cc32)n1` [Compound 109], the Activity was 7.9.
With `Cc1cccc(NCc2ccc3nc(NCCCN4CCOCC4)n(Cc4nc(C)ccc4O)c3c2)c1` [Compound 28] the Activity was 8.6.
Compound `Cc1ccc(C)c(NCc2ccc3nc(NCCCN4CCOCC4)n(Cc4nc(C)ccc4O)c3c2)c1` [Compound 40] has an Activity of 8.4.
With `Cc1cc(C)cc(N(CCC(=O)O)Cc2ccc3nc(NCCCN4CCOCC4)n(Cc4nc(C)ccc4O)c3c2)c1` [Compound 69] the Activity was 8.7.
With `Cc1ccc(O)c(Cn2c(NCCCN3CCOCC3)nc3ccc(CN(CC(N)=O)c4ccccc4CCO)cc32)n1` [Compound 101] the Activity was 8.3.
Work on `Cc1ccc(O)c(Cn2c(NCCCN3CCOCC3)nc3ccc(CN(CCN4CCOCC4)c4ccccc4CCO)cc32)n1` [Compound 103] yielded an Activity of 8.2.
Work on `Cc1ccc(OCCO)c(NCc2ccc3nc(NCCCN4CCOCC4)n(Cc4nc(C)ccc4O)c3c2)c1` [Compound 5] yielded an Activity of 9.8.
For `Cc1ccc(O)c(Cn2c(NCCCN3CCOCC3)nc3ccc(CNc4ccccc4C#N)cc32)n1` [Compound 27], the Activity was 8.7.
Work on `Cc1ccc(O)c(Cn2c(NCCCN3CCOCC3)nc3ccc(CN(CCO)c4ccccc4CCO)cc32)n1` [Compound 107] yielded an Activity of 8.1.
“2-[5,7-dimethyl-2-(2-morpholin-4-ylethyl-piperidin-4-ylamino)-benzoindazol-1-ylmethyl]-6-methyl-pyridin-3-ol [Compound 162]” showed an Activity of 7.9.
Compound `Cc1ccc(O)c(Cn2c(NCCCN3CCOCC3)nc3ccc(CNc4cc(Cl)ccc4CCCO)cc32)n1` [Compound 4] has an Activity of 9.9.
`Cc1ccc(O)c(Cn2c(NCCCN3CCOCC3)nc3ccc(CNc4cccc(F)c4)cc32)n1` [Compound 35] showed an Activity of 8.5.
In the case of `Cc1cccc(NCc2ccc3nc(NC4CCN(CCN5CCOCC5)CC4)n(Cc4nc(C)ccc4O)c3c2)c1` [Compound 164], the Activity is reported as 7.5.
In the case of `Cc1cccc(N(CCO)Cc2ccc3nc(NCCCN4CCOCC4)n(Cc4nc(C)ccc4O)c3c2)c1` [Compound 86], the Activity is reported as 9.3.
In the case of `Cc1ccc(NCCO)c(NCc2ccc3nc(NCCCN4CCOCC4)n(Cc4nc(C)ccc4O)c3c2)c1` [Compound 39], the Activity is reported as 8.5.
`Cc1ccc(O)c(Cn2c(NCCCN3CCOCC3)nc3ccc(CN(CCO)c4ccccc4C)cc32)n1` [Compound 110] gave an Activity of 7.8.
Work on `Cc1ccc(O)c(Cn2c(NCCCN3CCOCC3)nc3ccc(CNc4cc(C(F)(F)F)ccc4CCCO)cc32)n1` [Compound 13] yielded an Activity of 9.5.
For `Cc1ccc(O)c(Cn2c(NCCCN3CCOCC3)nc3ccc(CN(CCO)c4ccccc4)cc32)n1` [Compound 97], the Activity was 8.5.
`Cc1ccc(O)c(Cn2c(NCCCN3CCOCC3)nc3ccc(CNc4cccc(C)c4CO)cc32)n1` [Compound 43] was tested, and the Activity was 8.2.
Compound `Cc1ccc(O)c(Cn2c(NCCCN3CCOCC3)nc3ccc(CNc4cc(Br)ccc4CCO)cc32)n1` [Compound 11] has an Activity of 9.6.
`CCc1ccccc1NCc1ccc2nc(NCCCN3CCOCC3)n(Cc3nc(C)ccc3O)c2c1` [Compound 41] showed an Activity of 8.3.
`Cc1ccc(O)c(Cn2c(NCCCN3CCOCC3)nc3ccc(CNc4cccc(C)c4CCO)cc32)n1` [Compound 25] showed an Activity of 8.9.
For `Cc1ccc(O)c(Cn2c(NCCCN3CCOCC3)nc3ccccc32)n1` [compound 155], the Activity was 6.8.

Same assay, conditions: human respiratory syncytial virus, 168 h; RSV-infected HeLa cells, MTT readout seven days after infection; −log of EC50 in molar units
Compound `Cc1ccc(O)c(Cn2c(NCCCN3CCOCC3)nc3ccc(CNc4cc(S(C)(=O)=O)ccc4CCO)cc32)n1` [Compound 48] has an EC50 of 20 nM.
For `Cc1cc(C)cc(NCc2ccc3nc(NCCCN4CCOC(CCO)C4)n(Cc4nc(C)ccc4O)c3c2)c1` (stereo not shown) [Compound 181, 2-(6-[(3,5-Dimethyl-phenylamino)-methyl]-2-{3-[2-(2-hydroxy-ethyl)-morpholin-4-yl]-propylamino}-benzoimidazol-1-ylmethyl)-6-methyl-pyridin-3-ol], the EC50 was 6.31 nM.
In the case of `Cc1cc(C)cc(NCc2ccc3c(c2)nc(NCCCN2CCCOCC2)n3Cc2nc(C)ccc2O)c1` [Compound 174, 2-[5-[(3,5-Dimethyl-phenylamino)-methyl]-2-(3-[1,4]oxazepan-4-yl-propylamino)-benzoimidazol-1-ylmethyl]-6-methyl-pyridin-3-ol], the EC50 is reported as 2.51 nM.

Same assay, conditions: pEC50 (−log of EC50 when expressed in molar units), protection against RSV cytopathology
For `OCc1ccc2c(c1)nc(NCCCN1CCOCC1)n2Cc1cccc(Br)n1` [Compound 294], the Activity was 6.9.
Work on `C#Cc1ccc(CCO)c(NCc2ccc3nc(NCCCN4CCOCC4)n(Cc4cccc5cccnc45)c3c2)c1` [Compound 235] yielded an Activity of 8.3.
`Cc1cc(C)cc(NCc2ccc3nc(NCCCN4CCOCC4)n(Cc4cccc(C)n4)c3c2)c1` [Compound 334] was tested, and the Activity was 5.5.
`Cc1ccc(CCCO)c(NCc2ccc3c(c2)nc(NCCCN2CCOCC2)n3Cc2cccc(C)n2)c1` [Compound 350] was tested, and the Activity was 4.7.
`Cn1cnc2c(Cn3c(NCCCN4CCOCC4)nc4ccc(CNc5ccccc5C(N)=O)cc43)cccc21` [Compound 288] was tested, and the Activity was 7.
For `OCCCc1ccc(C(F)(F)F)cc1NCc1ccc2nc(NCCCN3CCOCC3)n(Cc3cc(Br)ccc3O)c2c1` [Compound 217], the Activity was 8.7.
With `Cc1nc2c(nc1C)C(n1c(NCCCN3CCOCC3)nc3cc(CO)ccc31)CCC2` (stereo not shown) [Compound 336] the Activity was 5.4.
`Cc1ccc(CCCO)c(NCc2ccc3nc(NCCCN4CCOCC4)n(Cc4cccc(C)n4)c3c2)c1` [Compound 274] showed an Activity of 7.2.
`C#Cc1ccc(CCO)c(NCc2ccc3nc(NCCCN4CCOCC4)n(Cc4cccc5c4ncn5C)c3c2)c1` [Compound 236] was tested, and the Activity was 8.1.
`Cc1nc2c(nc1C)C(n1c(NCCCN3CCOCC3)nc3cc(CNc4ccccc4CO)ccc31)CCC2` (stereo not shown) [Compound 287] showed an Activity of 7.1.
In the case of `Cc1nc(C)c(Cn2c(NCCCN3CCOCC3)nc3ccc(CNc4cc(Cl)cc(Cl)c4)cc32)nc1C` [Compound 289], the Activity is reported as 7.
In the case of `COc1ccc(C)nc1Cn1c(NCCCN2CCOCC2)nc2ccc(CN(CCO)c3cc(C)cc(C)c3)cc21` [Compound 240], the Activity is reported as 7.9.
`Cc1nc(C)c(Cn2c(NCCCN3CCOCC3)nc3ccc(CNc4cccc(CCO)c4)cc32)nc1C` [Compound 300] showed an Activity of 6.9.
With `Cc1nc2c(nc1C)C(n1c(NCCCN3CCOCC3)nc3cc(CNc4ccccc4CCO)ccc31)CCC2` (stereo not shown) [Compound 286] the Activity was 7.1.
With `OCCCc1ccc(C(F)(F)F)cc1NCc1ccc2nc(NCCCN3CCOCC3)n(Cc3ncccc3O)c2c1` [Compound 216] the Activity was 8.7.
For `Cc1nc(C)c(Cn2c(NCCCN3CCOCC3)nc3ccc(CNc4ccccc4CCN4CCOCC4)cc32)nc1C` [Compound 299], the Activity was 6.9.
Work on `Cc1ccc(CCCO)c(NCc2ccc3nc(NCCCN4CCOCC4)n(Cc4ccccc4O)c3c2)c1` [Compound 227] yielded an Activity of 8.5.
`Cc1cccc(NCc2ccc3nc(NCCCN4CCOCC4)n(Cc4cccc(C)n4)c3c2)c1` [Compound 338] was tested, and the Activity was 5.4.
`Cn1cnc2c(Cn3c(NCCCN4CCOCC4)nc4ccc(CNc5ccccc5CCN5CCOCC5)cc43)cccc21` [Compound 242] was tested, and the Activity was 7.8.
Compound `Cn1cnc2c(Cn3c(NCCCN4CCOCC4)nc4ccc(CNc5cc(C(F)(F)F)ccc5CCCO)cc43)cccc21` [Compound 241] has an Activity of 7.9.
Work on `Cn1cnc2c(Cn3c(NCCCN4CCOCC4)nc4ccc(CNc5ccccc5CCO)cc43)cccc21` [Compound 237] yielded an Activity of 7.9.
Work on `Cc1cccc(NCc2ccc3nc(NCCCN4CCOCC4)n(Cc4cccc5c4ncn5C)c3c2)c1CCO` [Compound 277] yielded an Activity of 7.1.
Compound `COc1ccc(C)nc1Cn1c(NCCCN2CCOCC2)nc2ccc(CNc3cc(C)ccc3CCO)cc21` [Compound 220] has an Activity of 8.6.
